Values joined by “and” are separate entries in the source; they are usually repeats but may differ in a detail not shown here. Equal entries are not always repeated.
System: female C57BL/6J mice, lung fibrosis induced by radiation
Assay: Radiation induced fibrosis mice model
Type: in vivo
Details: individual animals, irradiated lung, CpdA 30 mg/kg QD PO D1-D14
Protocol: Pneumonitis and lung fibrosis are the major radiation-induced complications following thoracic radiotherapy, which is one of the major treatment of lung and breast cancers, lymphomas and hematopoietic transplant conditioning.
The objective of this model is to evaluate the effect of a compound of the invention in lung fibrosis induced by radiation in mice. (Bickelhaupt et al., 2017)
7 weeks old (18/22 gr) female C57BL/6J mice from Charles River (France) are maintained on 12 h light/dark cycle at 22° C. with ad libidum access to tap water and food.
The test compounds are dissolved/suspended in appropriate vehicle prior to using and then kept light-free, under agitation at room temperature.
The dose volume administered is 10 mL/kg and the volume is adapted following mean body weight (BW) of the group as follows: 200 μL if mean BW<22.5 g, 250 μL if mean BW≥22.5 g; 300 μL if mean BW>27.5 g.
On day 1 of week 1, the animals are exposed at the thorax to a 17 Gray irradiation dose, under isoflurane anesthesia. […]
Body weight are recorded once a week, and on Day 14, lung function measurement under anesthesia is realized by Flexivent (Devos et al., 2017) for all groups before sacrifice.
At sacrifice on Day 14, the lungs are collected and fixed in 4% formaldehyde for 24 h before embedding in paraffin. […] The anti-collagen I antibody is detected and amplified by ImmPress kit (Vector Laboratories, Cat. No: MP-7401). The immunostained sections are then scanned (Nanozoomer 2.0HT, Hamamatsu) before quantification by image analysis (CaloPix software, TRIBVN Healthcare). Data are expressed as percentage collagen I area per area of lung tissue.
Values for all mice from the same group are averaged. Data are expressed as mean±sem and are compared with a one-way ANOVA followed by Dunnett multiple comparison post hoc test. […]
Manganese superoxide dismutase (MnSOD), located in mitochondria, catalyzes the conversion of superoxide into H2O2, and is a marker of antioxidant response induced by oxidative stress. MnSOD expression is measured immunohistochemically following a protocol adapted from Inghilleri et al. (Inghilleri et al., 2006).
At sacrifice on Day 14, the lungs are collected and fixed in 4% formaldehyde for 24 h before embedding in paraffin. […] The anti-MnSOD antibody is detected by an anti-rabbit biotinylated antibody (Vector Laboratories, Cat. No: BA-1100) amplified by avidin-biotin peroxidase (Vector Laboratories, Cat. No: PK-6100). […] The immunostained sections counterstained with Gill's hematoxylin are then scanned (Nanozoomer 2.0HT, Hamamatsu) before quantification by image analysis (CaloPix software, TRIBVN Healthcare). Data are expressed as percentage MnSOD stained area per area of lung tissue.

O=c1nc(OC[C@@H]2COCCO2)cc2n1CCc1cc(C#CC3CC3)ccc1-2 [Compound A, 9-Cyclopropylethynyl-2-((S)-1-[1,4]dioxan-2-ylmethoxy)-6,7-dihydro-pyrimido[6,1-a]isoquinolin-4-one]
Type I collagen stained area fraction (Figure 15): 16.2% and 14.7% and 11.0% and 13.0% and 8.7% and 8.1% and 6.5% and 8.9% and 9.1% and 8.6%
MnSOD stained area fraction (Figure 16): 0.31% and 0.74% and 0.39% and 0.57% (3×) and 0.71% and 0.66% and 0.99% and 0.26%

— patent US20210106582A1, “COMPOUNDS AND PHARMACEUTICAL COMPOSITIONS THEREOF FOR USE IN THE TREATMENT OF FIBROTIC DISEASES” (Galapagos NV, priority 2017, published 2021)
